Values after ≈ are worked out from the molar mass of the structure shown. One block for each molecule: values may come before it.
Experiments:
[1] = molecular target: T1, Orexin/Hypocretin receptor type 1 (Homo sapiens, UniProt O43613); assay: Antagonist activity at human orexin 1 receptor expressed in HEK293 cells assessed as inhibition of orexin-induced calcium mobilization after 60 mins by FLIPR assay; format: functional, cell-based
T1 sequence (O43613 whole entry): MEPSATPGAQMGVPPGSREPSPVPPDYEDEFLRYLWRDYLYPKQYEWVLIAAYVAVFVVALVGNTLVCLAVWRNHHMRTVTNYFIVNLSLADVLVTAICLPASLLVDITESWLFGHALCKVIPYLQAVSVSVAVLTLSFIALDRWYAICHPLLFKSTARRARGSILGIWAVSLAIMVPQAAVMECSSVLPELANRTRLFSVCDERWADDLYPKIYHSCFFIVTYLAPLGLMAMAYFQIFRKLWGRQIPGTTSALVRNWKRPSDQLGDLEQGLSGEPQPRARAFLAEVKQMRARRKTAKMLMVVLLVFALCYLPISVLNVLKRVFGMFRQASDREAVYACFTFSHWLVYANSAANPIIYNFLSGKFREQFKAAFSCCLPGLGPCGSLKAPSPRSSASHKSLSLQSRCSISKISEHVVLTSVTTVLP

[2] = molecular target: T2, Orexin receptor type 2 (Homo sapiens, UniProt O43614); assay: Antagonist activity at human orexin 2 receptor expressed in HEK293 cells assessed as inhibition of orexin-induced calcium mobilization after 60 mins by FLIPR assay; format: functional, cell-based
T2 sequence (O43614 whole entry): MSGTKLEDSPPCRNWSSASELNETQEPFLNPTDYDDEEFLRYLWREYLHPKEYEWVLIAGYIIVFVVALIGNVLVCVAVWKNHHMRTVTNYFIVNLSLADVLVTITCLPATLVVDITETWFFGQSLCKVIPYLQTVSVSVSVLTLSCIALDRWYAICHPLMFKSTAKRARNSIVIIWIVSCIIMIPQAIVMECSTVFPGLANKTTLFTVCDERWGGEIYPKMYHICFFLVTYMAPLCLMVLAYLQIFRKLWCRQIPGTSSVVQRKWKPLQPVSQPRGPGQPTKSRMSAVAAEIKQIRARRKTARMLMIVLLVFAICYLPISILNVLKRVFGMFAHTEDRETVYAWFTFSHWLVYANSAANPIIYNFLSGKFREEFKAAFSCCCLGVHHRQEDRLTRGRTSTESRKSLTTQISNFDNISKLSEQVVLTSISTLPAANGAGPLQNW

[3] = Thermodynamic solubility of the compound in phosphate buffer at pH 7.4 by HPLC method; format: physicochemical; settings: read-out: Therm_solubility
[4] = Plasma concentration in Sprague-Dawley rat at 10 mg/kg, po at 0.3 hrs; format: ADME, organism-based
[5] = Plasma concentration in Sprague-Dawley rat at 10 mg/kg, po at 1 hr; format: ADME, organism-based
[6] = Plasma concentration in Sprague-Dawley rat at 10 mg/kg, po at 4 hrs; format: ADME, organism-based
[7] = system: Brain; assay: Drug uptake in Sprague-Dawley rat brain at 10 mg/kg, po at 0.3 hrs; format: ADME, organism-based; settings: in vivo
[8] = system: Brain; assay: Drug uptake in Sprague-Dawley rat brain at 10 mg/kg, po at 1 hr; format: ADME, organism-based; settings: in vivo
[9] = system: Brain; assay: Drug uptake in Sprague-Dawley rat brain at 10 mg/kg, po at 4 hrs; format: ADME, organism-based; settings: in vivo
[10] = Ratio of drug level in brain to plasma in Sprague-Dawley rat at 10 mg/kg, po at 0.5 hrs; format: ADME, organism-based; settings: read-out: BPR
[11] = Ratio of drug level in brain to plasma in Sprague-Dawley rat at 10 mg/kg, po at 1 hr; format: ADME, organism-based; settings: read-out: BPR
[12] = Ratio of drug level in brain to plasma in Sprague-Dawley rat at 10 mg/kg, po at 4 hrs; format: ADME, organism-based; settings: read-out: BPR
[13] = Clearance in Sprague-Dawley rat at 2 mg/kg, iv; format: ADME, organism-based; settings: in vivo
[14] = Half life in Sprague-Dawley rat at 2 mg/kg, iv; format: ADME, organism-based; settings: in vivo
[15] = AUC in Sprague-Dawley rat at 15 mg/kg, po; format: ADME, organism-based; settings: in vivo
[16] = Cmax in Sprague-Dawley rat at 15 mg/kg, po; format: ADME, organism-based; set-up: dose 15 mg/kg, route oral; settings: in vivo
[17] = Tmax in Sprague-Dawley rat at 15 mg/kg, po; format: ADME, organism-based; settings: in vivo
[18] = Oral bioavailability in Sprague-Dawley rat at 15 mg/kg; format: ADME, organism-based; settings: in vivo
[19] = system: Rattus norvegicus; assay: Sleep promoting activity in Sprague-Dawley rat assessed as decrease in active wake time at 30 mg/kg, po measured over 2 hrs by electroencephalogram method; format: functional
[20] = system: Rattus norvegicus; assay: Sleep promoting activity in Sprague-Dawley rat assessed as decrease in active wake time at 90 mg/kg, po measured over 2 hrs by electroencephalogram method; format: functional
[21] = system: Rattus norvegicus; assay: Sleep promoting activity in Sprague-Dawley rat assessed as effect on rapid eye movement sleep time at 30 mg/kg, po measured over 2 hrs by electroencephalogram method; format: functional
[22] = system: Rattus norvegicus; assay: Sleep promoting activity in Sprague-Dawley rat assessed as effect on rapid eye movement sleep time at 90 mg/kg, po measured over 2 hrs by electroencephalogram method; format: functional
[23] = system: Rattus norvegicus; assay: Sleep promoting activity in Sprague-Dawley rat assessed as increase in slow wave sleep time at 30 mg/kg, po measured over 2 hrs by electroencephalogram method; format: functional
[24] = system: Rattus norvegicus; assay: Sleep promoting activity in Sprague-Dawley rat assessed as increase in slow wave sleep time at 90 mg/kg, po measured over 2 hrs by electroencephalogram method; format: functional
[25] = system: Rattus norvegicus; assay: Sleep promoting activity in po dosed Sprague-Dawley rat assessed as decrease in active wake time measured over 2 hrs by electroencephalogram method; format: functional, organism-based
[26] = system: Rattus norvegicus; assay: Sleep promoting activity in po dosed Sprague-Dawley rat assessed as increase in slow wave sleep time measured over 2 hrs by electroencephalogram method; format: functional, organism-based
[27] = molecular target: Voltage-gated inwardly rectifying potassium channel KCNH2 (Homo sapiens, UniProt Q12809); assay: Inhibition of human ERG
Chain of Voltage-gated inwardly rectifying potassium channel KCNH2 (Q12809 whole entry): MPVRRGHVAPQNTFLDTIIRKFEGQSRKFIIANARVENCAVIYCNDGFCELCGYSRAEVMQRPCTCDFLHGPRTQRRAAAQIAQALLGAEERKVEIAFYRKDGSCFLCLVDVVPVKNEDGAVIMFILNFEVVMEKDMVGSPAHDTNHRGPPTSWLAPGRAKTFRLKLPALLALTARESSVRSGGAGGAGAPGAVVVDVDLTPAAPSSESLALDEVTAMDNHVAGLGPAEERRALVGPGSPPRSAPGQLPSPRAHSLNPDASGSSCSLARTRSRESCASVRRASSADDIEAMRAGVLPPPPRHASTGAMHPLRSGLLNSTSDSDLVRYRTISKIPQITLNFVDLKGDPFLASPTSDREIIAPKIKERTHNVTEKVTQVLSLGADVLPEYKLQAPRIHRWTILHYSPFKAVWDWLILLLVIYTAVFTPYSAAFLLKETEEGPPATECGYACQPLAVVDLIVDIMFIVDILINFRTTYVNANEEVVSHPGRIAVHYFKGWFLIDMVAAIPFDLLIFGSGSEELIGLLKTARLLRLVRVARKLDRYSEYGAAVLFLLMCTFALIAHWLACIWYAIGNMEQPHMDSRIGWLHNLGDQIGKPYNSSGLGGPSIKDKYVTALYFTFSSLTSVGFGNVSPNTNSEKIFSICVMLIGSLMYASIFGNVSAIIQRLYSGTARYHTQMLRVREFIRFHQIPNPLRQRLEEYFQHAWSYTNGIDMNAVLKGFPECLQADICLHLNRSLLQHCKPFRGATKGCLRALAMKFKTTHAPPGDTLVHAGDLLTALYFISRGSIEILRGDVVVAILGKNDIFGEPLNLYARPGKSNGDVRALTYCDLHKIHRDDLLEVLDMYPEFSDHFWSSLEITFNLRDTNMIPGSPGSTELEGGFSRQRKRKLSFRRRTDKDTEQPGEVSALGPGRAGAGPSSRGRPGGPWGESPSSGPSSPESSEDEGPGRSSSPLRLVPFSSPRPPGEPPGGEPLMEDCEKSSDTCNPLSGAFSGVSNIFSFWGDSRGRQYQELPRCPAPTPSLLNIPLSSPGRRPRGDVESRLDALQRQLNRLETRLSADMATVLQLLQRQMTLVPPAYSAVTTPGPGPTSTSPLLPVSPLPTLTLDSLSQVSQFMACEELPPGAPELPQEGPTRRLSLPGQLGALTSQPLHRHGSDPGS

IC50 [1]: 1640 nM
IC50 [2]: 775 nM
Compound: Cc1ccc(-n2nccn2)c(C(=O)N2C[C@@H]3CN(c4nc5ccccc5n4C)C[C@@H]3C2)c1

IC50 [1]: 303 nM
IC50 [2]: 178 nM
solubility thermodynamic [3]: 41 µM (≈ 17 µg/mL)
concentration at 0.3 h [4]: 8800 nM
concentration at 1 h [5]: 3470 nM
concentration at 4 h [6]: 341 nM
Drug uptake [7]: 1134 nmol/kg
Drug uptake [8]: 429 nmol/kg
Drug uptake [9]: 22 nmol/kg
Kp at 0.5 h [10]: 0.13
Kp at 1 h [11]: 0.12
Kp at 4 h [12]: 0.06
clearance [13]: 10 mL/min/kg
half-life [14]: 1.9 h
AUC [15]: 20.3 µM·h
Cmax [16]: 10600 nM
Tmax [17]: 0.25 h
bioavailability [18]: 23%
Compound: Cc1ccc(-n2nccn2)c(C(=O)N2C[C@@H]3CN(c4nc5ccccc5o4)C[C@@H]3C2)c1
Time [19]: 25.7 min
Time [20]: 41.1 min
Time [21]: -0.1 min
Time [22]: 4.3 min
Time [23]: 25.9 min
Time [24]: 36.9 min
Activity [25]: Dose-dependent effect
Activity [26]: Dose-dependent effect

IC50 [1]: 113 nM
IC50 [2]: 211 nM
Compound: Cc1ccc(-n2nccn2)c(C(=O)N2C[C@@H]3CN(c4nc5cc(C)ccc5o4)C[C@@H]3C2)c1

IC50 [1]: 1960 nM
IC50 [2]: 791 nM
Compound: O=C(c1cc(F)ccc1-n1nccn1)N1C[C@@H]2CN(c3nc4cc(Cl)ccc4o3)C[C@@H]2C1

IC50 [1]: 293 nM
IC50 [2]: 131 nM
solubility thermodynamic [3]: < 2 µM
concentration at 0.3 h [4]: 1260 nM
concentration at 1 h [5]: 859 nM
concentration at 4 h [6]: 77 nM
Drug uptake [7]: 74 nmol/kg
Drug uptake [8]: 42 nmol/kg
Drug uptake ([9]; BLD = below limit of detection): Bld
Kp at 0.5 h [10]: 0.06
Kp at 1 h [11]: 0.05
Compound: Cc1ccc(-n2nccn2)c(C(=O)N2C[C@@H]3CN(c4nc5cc(F)ccc5o4)C[C@@H]3C2)c1

IC50 [1]: 216 nM
IC50 [2]: 108 nM
solubility thermodynamic [3]: 2.6 µM (≈ 1.15 µg/mL)
concentration at 0.3 h [4]: 567 nM
concentration at 1 h [5]: 328 nM
concentration at 4 h [6]: 24 nM
Drug uptake [7]: 80 nmol/kg
Drug uptake [8]: 43 nmol/kg
Drug uptake ([9]; BLD = below limit of detection): Bld
Kp at 0.5 h [10]: 0.14
Kp at 1 h [11]: 0.13
Compound: Cc1ccc(-n2nccn2)c(C(=O)N2C[C@@H]3CN(c4ncc5cc(F)ccc5n4)C[C@@H]3C2)c1

IC50 [1]: 3920 nM
IC50 [2]: 4710 nM
Compound: Cc1ccc(-n2nccn2)c(C(=O)N2C[C@@H]3CN(c4nc5cc(OC(F)(F)F)ccc5o4)C[C@@H]3C2)c1

IC50 [1]: > 10000 nM
IC50 [2]: 4850 nM
Compound: Cc1ccc(-n2nccn2)c(C(=O)N2C[C@@H]3CN(c4nc(C)c(C)c(C)n4)C[C@@H]3C2)c1

Continued, molecule first:

Compound: Cc1ccc(-n2nccn2)c(C(=O)N2CC3CCCN(c4nc5cc(Cl)ccc5o4)C3C2)c1 (stereo unspecified)
IC50 [1]: > 10000 nM
IC50 [2]: > 10000 nM

Compound: O=C(c1cc(Cl)ccc1-n1nccn1)N1C[C@@H]2CN(c3nc4cc(Cl)ccc4o3)C[C@@H]2C1
IC50 [1]: > 10000 nM
IC50 [2]: 1270 nM

Compound: O=C(c1cc(OC(F)(F)F)ccc1-n1nccn1)N1C[C@@H]2CN(c3nc4cc(Cl)ccc4o3)C[C@@H]2C1
IC50 [1]: 502 nM
IC50 [2]: 1520 nM

Compound: COc1ccc(-n2nccn2)c(C(=O)N2C[C@@H]3CN(c4nc5cc(Cl)ccc5o4)C[C@@H]3C2)c1
IC50 [1]: 517 nM
IC50 [2]: 387 nM

Compound: Cc1ccc(-n2nccn2)c(C(=O)N2C[C@@]3(F)CN(c4nc5ccccc5o4)C[C@@]3(F)C2)c1
IC50 [1]: 908 nM
IC50 [2]: 575 nM
IC50 [27]: > 30000 nM

Compound: O=C(c1cc(C(F)(F)F)ccc1-n1nccn1)N1C[C@@H]2CN(c3nc4cc(Cl)ccc4o3)C[C@@H]2C1
IC50 [1]: 5020 nM
IC50 [2]: 1040 nM

— ChEMBL document CHEMBL3997829, “Discovery of novel substituted octahydropyrrolo[3,4-c]pyrroles as dual orexin receptor antagonists for insomnia treatment” (Bioorg Med Chem Lett, 2017)
